This experiment can be described thus: Hypocalcemic activity in the fasted male rat (fall in calcemia one hour after intravenous injection, compared with Research Standard B). The conditions noted are these: male rat 100-120 g, fasted 16 hours, peptide diluted in sodium acetate buffer 0,1 N pH 6 with 0,1 % albumin, versus "Research Standard B". In kind it is in vivo. The text has this:
Elle est déterminée chez le rat mâle pesant de 100 à 120 g et soumis à un jeûne de 16 heures. L'activité est exprimée en unité MRC à partir de la baisse de la calcémie, mesurée une heure après l'injection intraveineuse de peptide à tester convenablement dilué en tampon acétate de sodium 0,1 N pH 6 et 0,1 % d'albumine, par comparaison avec l'activité du "Research Standard B" convenablement dilué. L'activité biologique du peptide de l'exemple 1 est supérieure à 4000 unités MRC par mg et celle du peptide de l'exemple 2 est supérieure à 4500 unités MRC par mg.

Here are results for one compound from patent EP0232650B1, “Analogues of hypocalcemic polypeptide compounds preserving the calcium content of the body, their manufacture, their use as medicaments and the compositions thereof” (MILHAUD, Gérard, priority 1985, dated 1989).

Where a SMILES comes first, the peptide text is derived from it. Bridges are numbered along the chain shown (N, C = ends).

`CC(C)C[C@H](NC(=O)[C@H](CCCCN)NC(=O)CNC(=O)[C@H](CC(C)C)NC(=O)[C@@H](NC(=O)[C@@H]1CSSC[C@H](N)C(=O)N[C@@H](CC(N)=O)C(=O)N[C@@H](CO)C(=O)N[C@@H](CC(C)C)C(=O)N[C@@H](CO)C(=O)N[C@@H]([C@@H](C)O)C(=O)N1)C(C)C)C(=O)N[C@@H](CO)C(=O)N[C@@H](CCC(N)=O)C(=O)N[C@@H](CCC(=O)O)C(=O)N[C@@H](CC(C)C)C(=O)N[C@@H](Cc1c[nH]cn1)C(=O)N[C@@H](CCCCN)C(=O)N[C@@H](CC(C)C)C(=O)N[C@@H](CCC(N)=O)C(=O)N[C@H](C(=O)N[C@@H](Cc1ccc(O)cc1)C(=O)N1CCC[C@H]1C(=O)N[C@@H](CCCNC(=N)N)C(=O)N[C@H](C(=O)N[C@@H](CC(=O)O)C(=O)N[C@H](C(=O)NCC(=O)N[C@@H](C)C(=O)NCC(=O)N[C@H](C(=O)N1CCC[C@H]1C(N)=O)[C@@H](C)O)C(C)C)[C@@H](C)O)[C@@H](C)O` [exemple 1, Cys - Asn - Ser - Leu - Sers - Thr - Cys - Val - Leu - Glyio - Lys - Leu - Ser - Gin - Glu1s - Leu - His - Lys - Leu - Gln20- Thr - Tyr - Pro - Arg - Thr25- Asp - Val - Gly - Ala - Gly30 - Thr - Proamide] (H-CNSLSTCVLGKLSQELHKLQTYPRTDVGAGTP-NH2; disulfide 1-7): the activité biologique is over 4000 unités MRC par mg.
